According to PubChem BioAssay (NCI):
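Five compound concentrations were applied to cells in 96-well plates for 48 hours; endpoints were derived by simple linear interpolation of the resulting dose-response curve. TGI: total growth inhibition.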

Legend:
Test in all cases: NCI tumour cell line growth inhibition, 48 h
[1] = tested on: 786-0 renal
[2] = tested on: A549 NSCLC
[3] = tested on: ACHN renal
[4] = tested on: CAKI-1 renal
[5] = tested on: CCRF-CEM leukemia
[6] = tested on: COLO 205 colon
[7] = tested on: DLD-1 colon
[8] = tested on: DMS 114 small cell lung
[9] = tested on: DMS 273 small cell lung
[10] = tested on: EKVX NSCLC
[11] = tested on: HCT-116 colon
[12] = tested on: HCT-15 colon
[13] = tested on: HL-60(TB) leukemia
[14] = tested on: HOP-18 NSCLC
[15] = tested on: HOP-62 NSCLC
[16] = tested on: HOP-92 NSCLC
[17] = tested on: HT29 colon
[18] = tested on: IGROV1 ovarian
[19] = tested on: K-562 leukemia
[20] = tested on: KM20L2 colon
[21] = tested on: LOX IMVI melanoma
[22] = tested on: LXFL 529 NSCLC
[23] = tested on: M14 melanoma
[24] = tested on: M19-MEL melanoma
[25] = tested on: MOLT-4 leukemia
[26] = tested on: NCI-H23 lung
[27] = tested on: NCI-H460 lung
[28] = tested on: NCI-H522 lung
[29] = tested on: OVCAR-8 ovarian
[30] = tested on: RPMI-8226 leukemia
[31] = tested on: RXF 393 renal
[32] = tested on: RXF-631 renal
[33] = tested on: SF-268 CNS
[34] = tested on: SF-295 CNS
[35] = tested on: SF-539 CNS
[36] = tested on: SK-MEL-28 melanoma
[37] = tested on: SK-MEL-5 melanoma
[38] = tested on: SK-OV-3 ovarian
[39] = tested on: SN12C renal
[40] = tested on: SNB-19 CNS
[41] = tested on: SW-620 colon
[42] = tested on: TK-10 renal
[43] = tested on: U251 CNS
[44] = tested on: UACC-62 melanoma
[45] = tested on: UO-31 renal
[46] = tested on: XF 498 CNS
[47] = tested on: HCC-2998 colon
[48] = tested on: KM12 colon
[49] = tested on: MALME-3M melanoma
[50] = tested on: NCI-H226 lung
[51] = tested on: OVCAR-3 ovarian
[52] = tested on: OVCAR-4 ovarian
[53] = tested on: OVCAR-5 ovarian
[54] = tested on: SK-MEL-2 melanoma
[55] = tested on: SNB-75 CNS
[56] = tested on: SR leukemia
[57] = tested on: UACC-257 melanoma

Cn1nc(-c2ccccc2)c(C(=O)/C=C/c2ccc(Cl)cc2)c(N2CCCC2)c1=O
TGI [1]: 13.5 µM
TGI [2]: 49.4 µM
TGI [3]: 3.34 µM
TGI [4]: 22.2 µM
TGI [5]: 6.7 µM
TGI [6]: 4.07 µM
TGI [7]: 10.8 µM
TGI [8]: 9.8 µM
TGI [9]: 24.2 µM
TGI [10]: 32.4 µM
TGI [11]: 8.11 µM
TGI [12]: > 100 µM
TGI [13]: 4.97 µM
TGI [14]: 19.4 µM
TGI [15]: 6.93 µM
TGI [16]: 6.94 µM
TGI [17]: 15.3 µM
TGI [18]: 27.9 µM
TGI [19]: 9.06 µM
TGI [20]: 15.1 µM
TGI [21]: 39.2 µM
TGI [22]: 13 µM
TGI [23]: 22.2 µM
TGI [24]: 23.2 µM
TGI [25]: 6.66 µM
TGI [26]: 10.6 µM
TGI [27]: 12.9 µM
TGI [28]: 6.45 µM
TGI [29]: 29.7 µM
TGI [30]: 7.84 µM
TGI [31]: 8.52 µM
TGI [32]: 50.5 µM
TGI [33]: 20.2 µM
TGI [34]: 11.6 µM
TGI [35]: 13.2 µM
TGI [36]: 13.8 µM
TGI [37]: 18.6 µM
TGI [38]: 18.8 µM
TGI [39]: 54 µM
TGI [40]: 21.7 µM
TGI [41]: 21.9 µM
TGI [42]: 26.6 µM
TGI [43]: 15.5 µM
TGI [44]: 22.4 µM
TGI [45]: 21.5 µM
TGI [46]: 28.3 µM

CCN(CC)CCO[Si](OCCN(CC)CC)(OCCN(CC)CC)OCCN(CC)CC
TGI [2]: > 100 µM
TGI [4]: > 100 µM
TGI [6]: > 100 µM
TGI [7]: > 100 µM
TGI [8]: > 100 µM
TGI [9]: > 100 µM
TGI [10]: > 100 µM
TGI [47]: > 100 µM
TGI [12]: > 100 µM
TGI [17]: > 100 µM
TGI [18]: > 100 µM
TGI [48]: > 100 µM
TGI [20]: > 100 µM
TGI [21]: > 100 µM
TGI [23]: > 100 µM
TGI [24]: > 100 µM
TGI [49]: > 100 µM
TGI [50]: > 100 µM
TGI [26]: > 100 µM
TGI [27]: > 100 µM
TGI [51]: > 100 µM
TGI [52]: > 100 µM
TGI [53]: > 100 µM
TGI [29]: > 100 µM
TGI [31]: > 100 µM
TGI [32]: > 100 µM
TGI [34]: > 100 µM
TGI [35]: > 100 µM
TGI [54]: > 100 µM
TGI [36]: > 100 µM
TGI [37]: > 100 µM
TGI [38]: > 100 µM
TGI [39]: > 100 µM
TGI [40]: > 100 µM
TGI [55]: > 100 µM
TGI [56]: > 100 µM
TGI [41]: > 100 µM
TGI [42]: > 100 µM
TGI [43]: > 100 µM
TGI [57]: > 100 µM
TGI [44]: > 100 µM
TGI [45]: > 100 µM
TGI [46]: > 100 µM
